How the values were obtained:
Format in all cases: cell-based
[1] = tested on: Trichophyton mentagrophytes NBRC 5466; experiment: MIC measurement by CLSI disk method, Trichophyton mentagrophytes NBRC 5466; details: for Inhibition zone: at the MIC amount per disk of the same line, mean of longest and shortest lengths of area without growth; for MIC concentration: disk method, Glucose Peptone agar, 27 ± 1° C., one week
Experimental: (§1) The followings were used as test microorganisms: Staphylococcus aureus NBRC 12732, Aspergillus niger NBRC 105649, and Trichophyton mentagrophytes NBRC 5466. Measurements were performed in accordance with the disk method as defined by CLSI (Clinical and Laboratory Standards Institute). A cryopreserved strain was applied onto a test-bacterium preculture medium, and precultured under predetermined conditions. A grown colony was suspended in a test-bacterium culture medium, and cultured under predetermined conditions, and then added to a test-bacterium preparation liquid to adjust the number of cells to about 107-8 CFU/mL. Further, the prepared test-bacterium liquid was subjected to 10-times serial dilution, and cultured under predetermined conditions, and the number of cells was then counted. [table] Each compound was dissolved in methanol to 1,000 μg/mL, which was used as a sample stock solution. Otsuka distilled water in an amount of 0.75 mL was added to 0.75 mL of the sample stock solution to give a volume of 500 μg/mL. This two-fold dilution was repeated in a similar way. A total of 10 test-substance dilution series was prepared so that the concentrations of the test substance were each 1000, 500, 250, 125, 63, 31, 16, 8, 4, and 2 μg/mL. A test-bacterium liquid was uniformly spread over a corresponding sensitivity measurement agar medium in a square petri dish using a swab, and disks were placed on the medium. At this time, the distance between disks was set to 24 mm or more. A test-substance diluted liquid in an amount of 50 μL was dropped on a disk. The amount of a test substance per disk was 50, 25, 12.5, 6.3, 3.1, 1.6, 0.8, 0.4, 0.2, or 0.1 μg. Each sensitivity measurement agar medium was cultured under conditions shown in Table 1 above, and the diameter of an inhibition zone where bacterial growth was not observed was measured in mm with calipers. As control, methanol was dropped on a disk instead of a test substance.

[2] = tested on: Aspergillus niger NBRC 105649; experiment: MIC measurement by CLSI disk method, Aspergillus niger NBRC 105649; details: for Inhibition zone: at the MIC amount per disk, mean of longest and shortest lengths of area without growth; for MIC concentration: disk method, Glucose Peptone agar, 27 ± 1° C., one week
Experimental: as §1

[3] = tested on: Staphylococcus aureus NBRC 12732; experiment: MIC measurement by CLSI disk method, Staphylococcus aureus NBRC 12732; details: for Inhibition zone: at the MIC amount per disk, mean of longest and shortest lengths of area without growth; for MIC concentration: disk method, Mueller-Hinton II agar, 36 ± 1° C., 18 to 24 hours
Experimental: as §1

[4] = tested on: Enterococcus faecalis ATCC29212; experiment: MIC measurement by CLSI disk method, Enterococcus faecalis ATCC 29212; details: for Inhibition zone: at the MIC amount per disk of the same line, mean of longest and shortest lengths of area without growth; for MIC: disk method, bacterial liquid 9.6 × 10^7 CFU/mL, Mueller-Hinton II agar, 35 ± 1° C., 24 h
Experimental: (§2) The followings were used as test microorganisms: Staphylococcus aureus (MRSA) IID 1677, Staphylococcus aureus (MRSA) ATCC 43300, Enterococcus faecalis (VRE) ATCC 51575, and Enterococcus faecalis ATCC 29212.
(§3) Measurements were performed in accordance with the disk method as defined by CLSI (Clinical and Laboratory Standards Institute).
(§4) A cryopreserved strain was applied onto a test-bacterium culture medium, and precultured under predetermined conditions (Table 3). A grown colony was again precultured (Table 3), and then suspended in a test-bacterium preparation liquid, and filtered through absorbent cotton. The number of cells was then adjusted to about 107-8 CFU/mL. This was used for the tests. Further, the prepared test-bacterium liquid was subjected to 10-times serial dilution, and cultured under predetermined conditions (Table 4), and the number of cells was then counted.
(§5) Each of the compounds according to the present invention was dissolved in methanol (Wako Pure Chemical Industries, Ltd., Special grade, Content: 99.8%) to 1000 µg/mL. This was used as a sample stock solution. Otsuka distilled water in an amount of 0.8 mL was added to 0.8 mL of the sample stock solution such that the concentration of each of the compounds according to the present invention was 500 μg/mL. This two-fold dilution was repeated in a similar way. A total of 10 test-substance dilution series were prepared so that the concentrations of the test substance were each 1000, 500, 250, 125, 63, 31, 16, 8, 4, and 2 μg/mL.
(§6) A test-bacterium liquid was uniformly spread over a sensitivity measurement agar medium in a square petri dish (230×80×14.5 mm, Eiken Chemical Co., Ltd.) using a swab, and φ8-mm thick disks (for antibiotics assay, Advantec Co., Ltd.) were placed on the medium. At this time, the distance between disks was set to 24 mm or more. A test-substance diluted liquid in an amount of 50 μL was dropped on a disk. The amount of a test substance per disk was 50, 25, 12.5, 6.3, 3.1, 1.6, 0.8, 0.4, 0.2, or 0.1 μg. A sensitivity measurement agar medium was cultured under predetermined conditions (Table 4), and the width of an inhibition zone where bacterial growth was not observed was measured in mm with calipers. As control, methanol was dropped on a disk instead of a test substance.

[5] = tested on: Staphylococcus aureus (MRSA) IID1677; experiment: MIC measurement by CLSI disk method, MRSA IID 1677; details: for Inhibition zone: at the MIC amount per disk, mean of longest and shortest lengths of area without growth; for MIC: disk method, bacterial liquid 7.3 × 10^7 CFU/mL, Mueller-Hinton II agar, 35 ± 1° C., 24 h
Experimental: as §2, §3, §4, §5, §6

[6] = tested on: Staphylococcus aureus (MRSA) ATCC43300; experiment: MIC measurement by CLSI disk method, MRSA ATCC 43300; details: for Inhibition zone: at the MIC amount per disk, mean of longest and shortest lengths of area without growth; for MIC: disk method, bacterial liquid 1.0 × 10^8 CFU/mL, Mueller-Hinton II agar, 35 ± 1° C., 24 h
Experimental: as §2, §3, §4, §5, §6

[7] = tested on: Enterococcus faecalis (VRE) ATCC51575; experiment: MIC measurement by CLSI disk method, VRE ATCC 51575; details: for Inhibition zone: at the MIC amount per disk, mean of longest and shortest lengths of area without growth; for MIC: disk method, bacterial liquid 1.9 × 10^8 CFU/mL, Mueller-Hinton II agar, 35 ± 1° C., 24 h
Experimental: as §2, §3, §4, §5, §6

MIC concentration [1] [μg/disk]	MIC concentration [2] [μg/disk]	MIC concentration [3] [μg/disk]	MIC [4] [μg/disk]	MIC [5] [μg/disk]	MIC [6] [μg/disk]	MIC [7] [μg/disk]	SMILES	Inhibition zone [1] [mm]	Inhibition zone [2] [mm]	Inhibition zone [3] [mm]	Inhibition zone [4] [mm]	Inhibition zone [5] [mm]	Inhibition zone [6] [mm]	Inhibition zone [7] [mm]
25	50	50					C[C@@H]1C/C=C/CC/C=C/CCCCCCCCCCCC[C@@H](OP(=O)([O-])OCC[N+](C)(C)C)CC(=O)O1 [Compound A]	2.5	3.7	2				
12.5	50	50					C[C@@H]1C/C=C/CC/C=C\CCCCCCCCCCCC[C@@H](OP(=O)([O-])OCC[N+](C)(C)C)CC(=O)O1 [Compound B]	3.9	3.7	2.2				
12.5	50	50					C[C@@H]1C/C=C/CC/C=C\CCCCCCCCCCCC[C@H](OP(=O)([O-])OCC[N+](C)(C)C)CC(=O)O1 [Compound C]	5.1	1	1.5				
			25	50	50	50	C[C@H]1C/C=C/CC/C=C/CCCCCCCCCCCC[C@H](OP(=O)([O-])OCC[N+](C)(C)C)CC(=O)O1 [Compound D, (3S,16E,20E,23S)-(+)-Eushearilide]				2.2	1.4	3.0	4.7
			>50	50	50	50	C[C@@H]1C/C=C/CC/C=C/CCCCCCCCCCCC[C@H](OP(=O)([O-])OCC[N+](C)(C)C)CC(=O)O1 [Compound E, (3S,16E,20E,23R)-(+)-Eushearilide]				0.0	2.2	3.3	6.9
			50	50	50	50	C[C@H]1C/C=C/CC/C=C/CCCCCCCCCCCC[C@@H](OP(=O)([O-])OCC[N+](C)(C)C)CC(=O)O1 [Compound F, (3R,16E,20E,23S)-(−)-Eushearilide]				7.7	3.1	2.4	5.8
			50	50	50	50	C[C@H]1C/C=C/CC/C=C\CCCCCCCCCCCC[C@H](OP(=O)([O-])OCC[N+](C)(C)C)CC(=O)O1 [Compound G, (3S,16Z,20E,23S)-(+)-Eushearilide]				8.4	2.3	0.9	6.7
			50	50	50	50	C[C@H]1C/C=C/CC/C=C\CCCCCCCCCCCC[C@@H](OP(=O)([O-])OCC[N+](C)(C)C)CC(=O)O1 [Compound H, (3R,16Z,20E,23S)-(−)-Eushearilide]				3.3	3.0	2.7	5.5
